For this experiment, the target named is Estrogen receptor beta (Mus musculus, UniProt O08537). The experiment can be described thus: Binding affinity to ERbeta receptor in mouse COS7 cells by competitive binding assay.

Structures are written as SMILES. Bounds are passed on as bounds.

Chain of Estrogen receptor beta (O08537 whole entry): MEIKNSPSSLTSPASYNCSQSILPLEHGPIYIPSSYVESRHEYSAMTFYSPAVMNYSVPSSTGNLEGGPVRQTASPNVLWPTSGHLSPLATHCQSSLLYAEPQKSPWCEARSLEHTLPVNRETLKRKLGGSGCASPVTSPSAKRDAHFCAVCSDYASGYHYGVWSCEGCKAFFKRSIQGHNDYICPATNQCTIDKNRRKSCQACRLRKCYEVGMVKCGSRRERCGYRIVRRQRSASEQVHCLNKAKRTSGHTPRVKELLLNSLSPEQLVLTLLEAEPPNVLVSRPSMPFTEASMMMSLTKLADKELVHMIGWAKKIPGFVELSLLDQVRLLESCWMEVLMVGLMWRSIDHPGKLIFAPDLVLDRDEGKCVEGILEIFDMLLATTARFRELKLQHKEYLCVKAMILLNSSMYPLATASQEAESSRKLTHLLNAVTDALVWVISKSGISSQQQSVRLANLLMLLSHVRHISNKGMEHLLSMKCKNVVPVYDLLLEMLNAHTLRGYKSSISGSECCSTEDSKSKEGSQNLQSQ

As a reminder, the Ki is the equilibrium dissociation constant of an inhibitor or competing ligand from its target. A higher Ki goes with weaker binding. For the compound `Brc1cc2c(cc1[C@@H]1Nc3ccccc3[C@@H]3C=CC[C@@H]31)OCO2`, the inhibition constant (Ki) is over 10 µM.

The values above are taken from BindingDB's records for doi:10.1038/nchembio.168 (University of New Mexico Health Sciences Center, 2009).
